Source: patent US20020142347A1, “Biosensor” (BIOSENSOR ApS, priority 2000, published 2002)

Target: T1, FACI53 (Bos taurus, UniProt P07107, A54C)
T1 construct: badan (6-bromoacetyl-2-dimethylaminonaphthalene) fluorophore on the introduced Cys-53; made in house; host or cells: E. coli BL21(DE3)pLysS, pET3a vector
T1 sequence (P07107 2-87 A54C): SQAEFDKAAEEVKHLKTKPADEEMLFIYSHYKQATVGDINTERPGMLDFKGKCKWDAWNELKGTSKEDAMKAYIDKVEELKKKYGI
Test: Isothermal titration calorimetry of acyl-CoA binding to FACI53
Parameters: species or system bovine
Protocol: Reference is made to FIG. 2. and FIG. 3. which depict the emission spectra of FACI24 and FACI53 titrated with increasing concentrations of CoA, C4-, C8-, C12-, C16- and C20-CoA esters. The addition of ligand and measurement of emission of FACI24 and FACI53 was performed as described in example 2. The increased addition of ligand to the mutated and modified proteins caused a proportional spectral change. The normal physiological binding profile was confirmed by direct binding studies using isoelectrical focusing as predicted in FIG. 4. […] The results clearly indicate that fluorescence emission at 470 nm may provide a measure for the concentration of free unbound long-chain(>C12)-acyl-CoA ester.
Quantitative determination of binding affinities (KD) were performed by isothermal titration micro calorimetry as previously described (Faergeman et. al., 1996; Biochemistry 35, 14118-14126). Qualitative evaluation of relative binding affinities were determined by isoelectrical focusing using the Pharmacia Fast Gel system according to the prescriptions given by the manufacture. […] The fluorescence emission was measured on a SPEX FLOUROLOG (Industries Inc, Edison N.J., USA) with excitation at 400 nm and emission scan from 400 nm to 550 nm. […]

- Binding to FACI53 by isothermal titration calorimetry: binding was confirmed
SMILES: CCCCCCCCCCCCCCCC(=O)SCCNC(=O)CCNC(=O)[C@H](O)C(C)(C)COP(=O)(O)OP(=O)(O)OC[C@H]1O[C@@H](n2cnc3c(N)ncnc32)[C@H](O)[C@@H]1OP(=O)(O)O [C16:0-CoA, palmitoyl-CoA]
